Data reported in ChEMBL document CHEMBL2424629, “Structure-based design, synthesis, and anticonvulsant activity of isatin-1-N-phenylacetamide derivatives” (Med Chem Res, 2013).
Activity calls are given as the source filed them. The rule behind the calls is not given here.

Key:
[1] = test system: Mus musculus; experiment: Neurotoxicity in BALB/c mouse at 300 mg/kg, ip after 0.5 to 4 hrs by rotarod test; assay type: toxicity, organism-based; parameters: dose 300 mg/kg, route intraperitoneal; conditions: in vivo
[2] = test system: Mus musculus; experiment: Anticonvulsant activity in BALB/c mouse assessed as protection against maximal electroshock-induced seizure at 100 mg/kg, ip after 0.5 to 4 hrs; assay type: functional, organism-based; parameters: dose 100 mg/kg
[3] = test system: Mus musculus; experiment: Neurotoxicity in BALB/c mouse at 100 mg/kg, ip after 0.5 to 4 hrs by rotarod test; assay type: toxicity, organism-based; parameters: dose 100 mg/kg, route intraperitoneal; conditions: in vivo
[4] = test system: Mus musculus; experiment: Anticonvulsant activity in ip dosed BALB/c mouse assessed as protection against maximal electroshock-induced seizure after 30 mins; assay type: functional; conditions: 0.5 h
[5] = Neurotoxicity in ip dosed BALB/c mouse after 30 mins by rotarod test; assay type: toxicity, organism-based; conditions: in vivo
[6] = organism: Mus musculus; experiment: Protective index, ratio of TD50 for BALB/c mouse by rotarod test to ED50 for BALB/c mouse by maximal electroshock seizure test; assay type: functional
[7] = test system: Mus musculus; experiment: Anticonvulsant activity in BALB/c mouse assessed as protection against maximal electroshock-induced seizure at 300 mg/kg, ip after 0.5 to 4 hrs; assay type: functional, organism-based; parameters: dose 300 mg/kg

SMILES	Activity [1]	Activity [2]	Activity [3]	ED50 [4]	TD50 at 0.5 h [5]	Ratio TD50/ED50 [6]	Activity [7]
O=C(CN1C(=O)C(=O)c2cccc(Br)c21)Nc1ccccc1	Non-toxic	inactive	Non-toxic	–	–	–	–
O=C(CN1C(=O)C(=O)c2ccc(Br)cc21)Nc1ccccc1	Non-toxic	inactive	Non-toxic	–	–	–	–
O=C(CN1C(=O)C(=O)c2ccccc21)Nc1ccccc1	Non-toxic	Active	Non-toxic	94.7 mg/kg	> 1000 mg/kg	>10.6	–
O=C(CN1C(=O)C(=O)c2cc(Br)cc(Br)c21)Nc1ccccc1	Non-toxic	–	Non-toxic	–	–	–	Active
Cc1ccc2c(c1)C(=O)C(=O)N2CC(=O)Nc1ccccc1	Non-toxic	Active	Non-toxic	91.3 mg/kg	> 1000 mg/kg	>11	–
O=C(CN1C(=O)C(=O)c2cccc([N+](=O)[O-])c21)Nc1ccccc1	Non-toxic	Active	Non-toxic	–	–	–	–
O=C(CN1C(=O)C(=O)c2ccc(Cl)cc21)Nc1ccccc1	Non-toxic	inactive	Non-toxic	–	–	–	–
O=C(CN1C(=O)C(=O)c2cccc(Cl)c21)Nc1ccccc1	Non-toxic	Active	Non-toxic	–	–	–	–
O=C1Nc2ccccc2C1=O [ISATIN]	Non-toxic	–	Non-toxic	–	–	–	Active
O=C(CN1C(=O)C(=O)c2cc(Br)ccc21)Nc1ccccc1	Non-toxic	Active	Non-toxic	–	–	–	–
Cc1cccc2c1N(CC(=O)Nc1ccccc1)C(=O)C2=O	Non-toxic	Active	Non-toxic	114 mg/kg	> 1000 mg/kg	>8.8	–
Cc1ccc2c(c1)N(CC(=O)Nc1ccccc1)C(=O)C2=O	Non-toxic	Active	Non-toxic	136 mg/kg	> 1000 mg/kg	>7.3	–
O=C(CN1C(=O)C(=O)c2cc(Cl)ccc21)Nc1ccccc1	Non-toxic	Active	Non-toxic	110 mg/kg	> 800 mg/kg	>7.3	–
O=C(CN1C(=O)C(=O)c2cc(F)ccc21)Nc1ccccc1	Non-toxic	Active	Non-toxic	88 mg/kg	> 800 mg/kg	>9.1	–
NC(=O)N1c2ccccc2C=Cc2ccccc21 [CARBAMAZEPINE]	–	–	–	8.8 mg/kg	> 71.6 mg/kg	–	–
O=C(CN1C(=O)C(=O)c2ccc(F)cc21)Nc1ccccc1	Non-toxic	inactive	Non-toxic	–	–	–	–
CCC1(c2ccccc2)C(=O)NC(=O)NC1=O [PHENOBARBITAL]	–	–	–	21.8 mg/kg	> 69 mg/kg	–	–
